Key:
[1] = tested on: Type-1 angiotensin II receptor (Oryctolagus cuniculus); test: In vitro inhibitory activity against Angiotensin II receptor in rabbit aorta was evaluated
[2] = Compound was tested for plasma clearance in rats; format: ADME, organism-based; conditions: rat, read-out: Clp
[3] = Volume distribution in rat; format: ADME, organism-based; conditions: in vivo
[4] = Oral bioavailability in rat; format: ADME, organism-based; conditions: in vivo
[5] = Compound was tested for plasma half-life period in rat; format: ADME, organism-based

pKB [1] | clearance [2] | Vd [3] | bioavailability [4] | half-life [5] | SMILES
9.3 | – | – | – | – | CCc1nc2c(C)cc(C(=O)O)nc2n1Cc1ccc2oc(-c3ccccc3NS(=O)(=O)C(F)(F)F)c(Br)c2c1
9.3 | 5.49 mL/min/kg | 1.33 L/kg | 70% | 2.8 h | CCc1nc2c(C)cc(C)nc2n1Cc1ccc2oc(-c3ccccc3NS(=O)(=O)C(F)(F)F)c(Br)c2c1
8.3 | – | – | – | – | CCc1nc2c(C)ccnc2n1Cc1ccc2oc(-c3ccccc3NS(=O)(=O)C(F)(F)F)c(Br)c2c1
8.6 | 4.8 mL/min/kg | 2.4 L/kg | 115% | 5.7 h | CCc1nc2c(C)cc(CO)nc2n1Cc1ccc2oc(-c3ccccc3NS(=O)(=O)C(F)(F)F)c(Br)c2c1

Reference: ChEMBL document CHEMBL1159143, “Benzofuran based non-peptide antagonists of angiotensin II related to GR117289: part IV; imidazopyridinylbenzofurans” (Bioorg Med Chem Lett, 1994)
